ChEMBL document CHEMBL1149216, “Benzene-di-N-octylcarbamates as conformationally constrained phospholipase A(2) inhibitors” (Bioorg Med Chem Lett, 2004)

Tests used:
[1] = target: Phospholipase A2, major isoenzyme (Sus scrofa) (UniProt P00592); test: Pre-steady-state inhibition constant against phospholipase A2; settings: naja mocambique mocambique
[2] = target: Phospholipase A2, major isoenzyme (Sus scrofa) (UniProt P00592); test: k_2 value calculated from 1/Ki=(1/Ks)(k2/k_2); settings: naja mocambique mocambique

Phospholipase A2, major isoenzyme (Sus scrofa), sequence (P00592 23-146 limits assumed): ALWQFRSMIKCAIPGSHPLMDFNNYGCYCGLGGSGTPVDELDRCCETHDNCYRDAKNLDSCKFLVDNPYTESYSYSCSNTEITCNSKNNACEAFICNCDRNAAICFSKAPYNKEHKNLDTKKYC

| K2 [1] | Ks [1] | k 2 [2] | Compound |
| --- | --- | --- | --- |
| 0.13 s⁻¹ | 16 µM | 0.033 s⁻¹ | CCCCCCCCNC(=O)Oc1cccc(OC(=O)NCCCCCCCC)c1 |
| 0.21 s⁻¹ | 21 µM | 0.15 s⁻¹ | CCCCCCCCNC(=O)Oc1ccc(OC(=O)NCCCCCCCC)cc1 |
| 0.17 s⁻¹ | 68 µM | 0.028 s⁻¹ | CCCCCCCCNC(=O)Oc1ccccc1OC(=O)NCCCCCCCC |
